The structures appear in SMILES notation. Where a name gives a salt, the structure may show the parent alone.

The nature of data set [1]: saturated solubility in solvents. It is filed as physicochemical.
For data set [2] the following is noted: topical regional use; relative to piroxicam; cited from earlier work.

Take `O=C(O)Cc1ccccc1Nc1c(Cl)cccc1Cl` [diclofenac acid]: the “saturated solubility in polyethylene glycol” value in data set [1] (solvent polyethylene glycol) is 11.18 % w/w. In addition, the “saturated solubility in propanol or iso-propanol” value in data set [1] (solvent propanol or iso-propanol) is 3-4%. Also, the “saturated solubility in pure ethanol” value in data set [1] (solvent pure ethanol) worked out at 5 % w/w.

Turning to `O=C(O)Cc1ccccc1Nc1c(Cl)cccc1Cl` [diclofenac], in data set [2], the efficacy index, factor greater than that for piroxicam is ~1000. As to `O=C(O)Cc1ccccc1Nc1c(Cl)cccc1Cl` [sodium salt of diclofenac acid, diclofenac sodium], the “saturated solubility in propylene glycol” value in data set [1] (solvent propylene glycol) was “approximately 50 % w/w”.

These data come from patent US8541470B2, “Topical pharmaceutical formulation” (Futura Medical Developments Limited, priority 2007, dated 2013).
